# Tested on: MV-4-11 cells
# Test: Gene expression microarray analysis (Affymetrix PrimeView) and GSEA
# Format: cell-based, human
# Design: RFU PODN (11730768_x_at) / Fold change /veh PODN (11730768_x_at) / RFU LINC00158 (11744669_a_at) / Fold change /veh LINC00158 (11744669_a_at) / RFU DUSP10 (11751237_a_at) / Fold change /veh DUSP10 (11751237_a_at) / RFU ID3 (11757404_x_at) / Fold change /veh ID3 (11757404_x_at) / RFU PLEKHG5 (11737974_s_at) / Fold change /veh PLEKHG5 (11737974_s_at) / RFU LRRC4B (11730491_at) / Fold change /veh LRRC4B (11730491_at) / RFU GIMAP4 (11747438_a_at) / Fold change /veh GIMAP4 (11747438_a_at) / RFU KRT8 (11758183_x_at) / Fold change /veh KRT8 (11758183_x_at) / RFU CNN1 (11734310_a_at) / Fold change /veh CNN1 (11734310_a_at) / RFU VPS37D (11726825_at) / Fold change /veh VPS37D (11726825_at) / RFU C10orf10 (11716522_x_at) / Fold change /veh C10orf10 (11716522_x_at) / RFU KIR2DL2 /// KIR2DL4 /// KIR2DL5A /// KIR2DL5B /// KIR2DS1 /// KIR2DS2 /// KIR2DS3 /// KIR2DS4 /// KIR3DL3 /// KIR3DL3 /// KIR3DS1 (11738374_at) / Fold change /veh KIR2DL2 /// KIR2DL4 /// KIR2DL5A /// KIR2DL5B /// KIR2DS1 /// KIR2DS2 /// KIR2DS3 /// KIR2DS4 /// KIR3DL3 /// KIR3DL3 /// KIR3DS1 (11738374_at) / RFU C1QL1 (11718748_at) / Fold change /veh C1QL1 (11718748_at) / RFU TMPRSS4 (11747572_a_at) / Fold change /veh TMPRSS4 (11747572_a_at) / RFU HAMP (11756126_x_at) / Fold change /veh HAMP (11756126_x_at) / RFU RNFT2 (11725882_a_at) / Fold change /veh RNFT2 (11725882_a_at) / RFU NR4A2 (11747474_a_at) / Fold change /veh NR4A2 (11747474_a_at) / RFU ABCC12 (11746883_a_at) / Fold change /veh ABCC12 (11746883_a_at) / RFU TMEM136 (11760407_x_at) / Fold change /veh TMEM136 (11760407_x_at) / RFU CLDN22 /// WWC2 (11732394_at) / Fold change /veh CLDN22 /// WWC2 (11732394_at) / RFU HLA-DPB1 (11760878_x_at) / Fold change /veh HLA-DPB1 (11760878_x_at) / RFU SPINT1 (11716480_a_at) / Fold change /veh SPINT1 (11716480_a_at) / RFU GAP43 (11754022_s_at) / Fold change /veh GAP43 (11754022_s_at) / RFU A4GNT (11735810_at) / Fold change /veh A4GNT (11735810_at) / RFU PRB3 (11715151_x_at) / Fold change /veh PRB3 (11715151_x_at) / RFU TUBB4B (11761932_at) / Fold change /veh TUBB4B (11761932_at) / RFU CAPN14 (11732068_a_at) / Fold change /veh CAPN14 (11732068_a_at) / RFU TMCC2 (11721928_a_at) / Fold change /veh TMCC2 (11721928_a_at) / RFU IRGQ (11745062_a_at) / Fold change /veh IRGQ (11745062_a_at) / RFU FAM174B (11720279_a_at) / Fold change /veh FAM174B (11720279_a_at) / RFU TMPRSS4 (11748680_a_at) / Fold change /veh TMPRSS4 (11748680_a_at) / RFU FAM212B (11763350_a_at) / Fold change /veh FAM212B (11763350_a_at) / RFU PLEKHG5 (11743358_a_at) / Fold change /veh PLEKHG5 (11743358_a_at) / RFU ZSCAN30 (11745921_a_at) / Fold change /veh ZSCAN30 (11745921_a_at) / RFU CMKLR1 (11741424_a_at) / Fold change /veh CMKLR1 (11741424_a_at) / RFU LOC101060620 /// MAPK8IP1 (11723275_at) / Fold change /veh LOC101060620 /// MAPK8IP1 (11723275_at) / RFU SPTSSB (11747773_x_at) / Fold change /veh SPTSSB (11747773_x_at) / RFU PRSS12 (11739890_at) / Fold change /veh PRSS12 (11739890_at) / RFU BIN1 (11741810_x_at) / Fold change /veh BIN1 (11741810_x_at) / RFU WNT11 (11732464_a_at) / Fold change /veh WNT11 (11732464_a_at) / RFU C10orf10 (11716521_a_at) / Fold change /veh C10orf10 (11716521_a_at) / RFU C5orf56 (11738089_at) / Fold change /veh C5orf56 (11738089_at) / RFU CYB561 (11721691_x_at) / Fold change /veh CYB561 (11721691_x_at) / RFU ANKRD19P (11752326_a_at) / Fold change /veh ANKRD19P (11752326_a_at) / RFU OR2T12 /// OR2T33 /// OR2T8 (11738714_s_at) / Fold change /veh OR2T12 /// OR2T33 /// OR2T8 (11738714_s_at) / RFU VCAN (11748164_a_at) / Fold change /veh VCAN (11748164_a_at) / RFU JSRP1 (11732532_at) / Fold change /veh JSRP1 (11732532_at) / RFU KRTAP10-11 (11738290_x_at) / Fold change /veh KRTAP10-11 (11738290_x_at) / RFU MYO3A (11730013_a_at) / Fold change /veh MYO3A (11730013_a_at) / RFU EBF3 (11725865_a_at) / Fold change /veh EBF3 (11725865_a_at) / RFU CAMK2N1 (11719241_x_at) / Fold change /veh CAMK2N1 (11719241_x_at) / RFU C5orf56 (11738088_a_at) / Fold change /veh C5orf56 (11738088_a_at) / RFU OLFML3 (11715873_a_at) / Fold change /veh OLFML3 (11715873_a_at) / RFU LOC100653217 /// NTM (11731650_a_at) / Fold change /veh LOC100653217 /// NTM (11731650_a_at) / RFU MAPK11 (11762145_a_at) / Fold change /veh MAPK11 (11762145_a_at) / RFU FIZ1 (11724087_x_at) / Fold change /veh FIZ1 (11724087_x_at) / RFU OASL (11726364_x_at) / Fold change /veh OASL (11726364_x_at) / RFU SOX15 (11748057_x_at) / Fold change /veh SOX15 (11748057_x_at) / RFU CD79A (11719716_a_at) / Fold change /veh CD79A (11719716_a_at) / RFU HIST1H1D (11736915_at) / Fold change /veh HIST1H1D (11736915_at) / RFU CASKIN2 (11723855_a_at) / Fold change /veh CASKIN2 (11723855_a_at) / RFU LOC730098 (11760151_x_at) / Fold change /veh LOC730098 (11760151_x_at) / RFU OR4N2 (11742367_at) / Fold change /veh OR4N2 (11742367_at) / RFU PRRT2 (11749266_a_at) / Fold change /veh PRRT2 (11749266_a_at) / RFU SNX32 (11753110_a_at) / Fold change /veh SNX32 (11753110_a_at) / RFU CDHR5 (11726645_a_at) / Fold change /veh CDHR5 (11726645_a_at) / RFU RCAN1 (11760418_a_at) / Fold change /veh RCAN1 (11760418_a_at) / RFU FAM167A (11723789_a_at) / Fold change /veh FAM167A (11723789_a_at) / RFU FAM26E (11764081_at) / Fold change /veh FAM26E (11764081_at) / RFU ISYNA1 (11749810_s_at) / Fold change /veh ISYNA1 (11749810_s_at) / RFU ACY1 (11761880_at) / Fold change /veh ACY1 (11761880_at) / RFU 11764098_at / Fold change /veh 11764098_at / RFU SAMD14 (11745864_x_at) / Fold change /veh SAMD14 (11745864_x_at) / RFU NPB (11741838_a_at) / Fold change /veh NPB (11741838_a_at) / RFU TMPRSS6 (11731388_a_at) / Fold change /veh TMPRSS6 (11731388_a_at) / RFU KRTAP10-2 (11738614_at) / Fold change /veh KRTAP10-2 (11738614_at) / RFU ARHGAP8 /// PRR5-ARHGAP8 (11727945_x_at) / Fold change /veh ARHGAP8 /// PRR5-ARHGAP8 (11727945_x_at) / RFU KRTAP5-7 /// NADSYN1 (11734609_at) / Fold change /veh KRTAP5-7 /// NADSYN1 (11734609_at) / RFU RASL12 (11751679_a_at) / Fold change /veh RASL12 (11751679_a_at) / RFU CDKN2B (11736163_a_at) / Fold change /veh CDKN2B (11736163_a_at) / RFU PRF1 (11729649_at) / Fold change /veh PRF1 (11729649_at) / RFU, ZNF638 /// ZNF638-IT1 / Fold change vs veh, ZNF638 /// ZNF638-IT1 / RFU, PANK3 / Fold change vs veh, PANK3 / RFU, SH3YL1 / Fold change vs veh, SH3YL1 / RFU, ZEB2 / Fold change vs veh, ZEB2 / RFU, NRIP1 / Fold change vs veh, NRIP1 / RFU, PTTG1IP / Fold change vs veh, PTTG1IP / RFU, CAPN2 / Fold change vs veh, CAPN2 / RFU, MED14 / Fold change vs veh, MED14 / RFU, SNORA58 / Fold change vs veh, SNORA58 / RFU, C1orf63 / Fold change vs veh, C1orf63 / RFU, LRRFIP1 / Fold change vs veh, LRRFIP1 / RFU, NDUFAF7 / Fold change vs veh, NDUFAF7 / RFU, SLC12A2 / Fold change vs veh, SLC12A2 / RFU, IBTK / Fold change vs veh, IBTK / RFU, ESF1 / Fold change vs veh, ESF1 / Fold change vs veh, TMEM50B / RFU, TAOK1 / Fold change vs veh, TAOK1 / RFU, ACBD3 / Fold change vs veh, ACBD3 / RFU, TMA16 / Fold change vs veh, TMA16 / RFU, RWDD3 / Fold change vs veh, RWDD3 / RFU, BCAT1 / Fold change vs veh, BCAT1 / RFU, EDEM3 / Fold change vs veh, EDEM3 / RFU, TMEM33 / Fold change vs veh, TMEM33 / RFU, WDR75 / Fold change vs veh, WDR75 / RFU, AHCTF1 / Fold change vs veh, AHCTF1 / RFU, TFRC / Fold change vs veh, TFRC / RFU, ZDHHC17 / Fold change vs veh, ZDHHC17 / RFU, NOM1 / Fold change vs veh, NOM1 / RFU, ARL8B / Fold change vs veh, ARL8B / RFU, ZBTB11 / Fold change vs veh, ZBTB11 / RFU, TAMM41 / Fold change vs veh, TAMM41 / RFU, KIAA1704 /// LOC100996395 / Fold change vs veh, KIAA1704 /// LOC100996395 / RFU, ING1 / Fold change vs veh, ING1 / RFU, TRMT61B / Fold change vs veh, TRMT61B / RFU, FUBP3 / Fold change vs veh, FUBP3 / RFU, TP53 / Fold change vs veh, TP53 / RFU, TNKS2 / Fold change vs veh, TNKS2 / RFU, ZFP14 / Fold change vs veh, ZFP14 / RFU, ACTR2 / Fold change vs veh, ACTR2 / RFU, PPP3R1 / Fold change vs veh, PPP3R1 / RFU, PIK3R1 / Fold change vs veh, PIK3R1 / RFU, HNRNPA1 / Fold change vs veh, HNRNPA1 / RFU, RNF170 / Fold change vs veh, RNF170 / RFU, ZNF28 / Fold change vs veh, ZNF28 / RFU, RNGTT / Fold change vs veh, RNGTT / RFU, OGT / Fold change vs veh, OGT / RFU, BRD1 / Fold change vs veh, BRD1 / RFU, MARS / Fold change vs veh, MARS / RFU, ZNF655 / Fold change vs veh, ZNF655 / RFU, FAHD1 / Fold change vs veh, FAHD1 / RFU, BDP1 / Fold change vs veh, BDP1 / RFU, LRRCC1 / Fold change vs veh, LRRCC1 / RFU, ARID1A / Fold change vs veh, ARID1A / RFU, ZNF146 / Fold change vs veh, ZNF146 / RFU, ZNF330 / Fold change vs veh, ZNF330 / RFU, GPN3 / Fold change vs veh, GPN3 / RFU, C9orf123 / Fold change vs veh, C9orf123 / RFU, N4BP2L2 / Fold change vs veh, N4BP2L2 / RFU, ARFIP1 / Fold change vs veh, ARFIP1 / RFU, FAM179B / Fold change vs veh, FAM179B / RFU, BCL10 / Fold change vs veh, BCL10 / RFU, UHRF1BP1L / Fold change vs veh, UHRF1BP1L / RFU, BET1 / Fold change vs veh, BET1 / RFU, CNOT2 / Fold change vs veh, CNOT2 / RFU, ZNF268 / Fold change vs veh, ZNF268 / Fold change vs veh, ZNF507 / RFU, DGCR2 / Fold change vs veh, DGCR2 / RFU, WDSUB1 / Fold change vs veh, WDSUB1 / Fold change vs veh, HSP90B1 /// MIR3652 / RFU, ADSS / Fold change vs veh, ADSS / RFU, GK / Fold change vs veh, GK / RFU, ZNF148 / Fold change vs veh, ZNF148 / RFU, TAF9 / Fold change vs veh, TAF9 / RFU, SLC1A5 / Fold change vs veh, SLC1A5 / RFU, SLMO2 / Fold change vs veh, SLMO2 / RFU, ABCC4 / Fold change vs veh, ABCC4 / RFU, LOC101060439 /// RAP1B / Fold change vs veh, LOC101060439 /// RAP1B / RFU, RFX7 / Fold change vs veh, RFX7 / RFU, GTPBP10 / Fold change vs veh, GTPBP10 / RFU, CNEP1R1 / Fold change vs veh, CNEP1R1 / RFU, BIVM-ERCC5 /// ERCC5 / Fold change vs veh, BIVM-ERCC5 /// ERCC5 / RFU, ILF3 / Fold change vs veh, ILF3 / RFU 11762660_at / Fold change /veh 11762660_at / RFU VCAN (11757783_s_at) / Fold change /veh VCAN (11757783_s_at) / RFU DDX43 (11728927_at) / Fold change /veh DDX43 (11728927_at) / RFU KRT8 (11758188_x_at) / Fold change /veh KRT8 (11758188_x_at) / RFU NKD1 (11759106_at) / Fold change /veh NKD1 (11759106_at) / RFU SRD5A1 (11742802_a_at) / Fold change /veh SRD5A1 (11742802_a_at) / RFU TPSAB1 /// TPSB2 (11721975_s_at) / Fold change /veh TPSAB1 /// TPSB2 (11721975_s_at) / RFU GSTM3 (11746129_a_at) / Fold change /veh GSTM3 (11746129_a_at) / RFU IL23R (11737362_x_at) / Fold change /veh IL23R (11737362_x_at) / RFU TMEM51 (11727254_a_at) / Fold change /veh TMEM51 (11727254_a_at) / RFU PIWIL2 (11732686_x_at) / Fold change /veh PIWIL2 (11732686_x_at) / RFU ORM1 (11744905_x_at) / Fold change /veh ORM1 (11744905_x_at) / RFU CCDC152 (11743942_at) / Fold change /veh CCDC152 (11743942_at) / RFU ECM1 (11717891_a_at) / Fold change /veh ECM1 (11717891_a_at) / RFU IL23R (11748794_a_at) / Fold change /veh IL23R (11748794_a_at) / RFU TNFAIP8L3 (11732012_x_at) / Fold change /veh TNFAIP8L3 (11732012_x_at) / RFU MBOAT4 (11741988_at) / Fold change /veh MBOAT4 (11741988_at) / RFU 11764193_at / Fold change /veh 11764193_at / RFU TMEM53 (11763286_at) / Fold change /veh TMEM53 (11763286_at) / RFU MAGEB2 (11727129_at) / Fold change /veh MAGEB2 (11727129_at) / RFU TMEM200A (11744735_a_at) / Fold change /veh TMEM200A (11744735_a_at) / RFU CCDC152 (11751479_a_at) / Fold change /veh CCDC152 (11751479_a_at) / RFU FAM211A (11726209_a_at) / Fold change /veh FAM211A (11726209_a_at) / RFU RGS16 (11746705_a_at) / Fold change /veh RGS16 (11746705_a_at) / RFU VCAN (11755009_s_at) / Fold change /veh VCAN (11755009_s_at) / RFU RHOB (11743442_s_at) / Fold change /veh RHOB (11743442_s_at) / RFU RGS16 (11720943_a_at) / Fold change /veh RGS16 (11720943_a_at) / RFU RGS16 (11720944_at) / Fold change /veh RGS16 (11720944_at) / RFU, VPS4B / Fold change vs veh, VPS4B / RFU, CREB1 / Fold change vs veh, CREB1 / RFU, DNAJC13 / Fold change vs veh, DNAJC13 / RFU, GNAQ / Fold change vs veh, GNAQ / RFU, CDK5R1 / Fold change vs veh, CDK5R1 / RFU, ZRANB3 / Fold change vs veh, ZRANB3 / RFU, CUL4A / Fold change vs veh, CUL4A / RFU, CCNY / Fold change vs veh, CCNY / RFU, UFL1 / Fold change vs veh, UFL1 / RFU, COG3 / Fold change vs veh, COG3 / RFU, DIAPH2 / Fold change vs veh, DIAPH2 / RFU, SKA2 / Fold change vs veh, SKA2 / RFU, AFF3 / Fold change vs veh, AFF3 / RFU, LMF1 / Fold change vs veh, LMF1 / RFU, IPO11 / Fold change vs veh, IPO11 / RFU, DFFB / Fold change vs veh, DFFB / RFU, FOXP1 / Fold change vs veh, FOXP1 / RFU, CARD8 / Fold change vs veh, CARD8 / RFU, STRN3 / Fold change vs veh, STRN3 / RFU, ADK / Fold change vs veh, ADK / RFU, RASSF2 / Fold change vs veh, RASSF2 / RFU, WIPF1 / Fold change vs veh, WIPF1 / RFU, LARP1B / Fold change vs veh, LARP1B / RFU, RASA1 / Fold change vs veh, RASA1 / RFU, RB1 / Fold change vs veh, RB1 / RFU, PPFIA1 / Fold change vs veh, PPFIA1 / RFU, MAT2A / Fold change vs veh, MAT2A / RFU, CCT5 / Fold change vs veh, CCT5 / RFU, WDR92 / Fold change vs veh, WDR92 / RFU, CUX1 / Fold change vs veh, CUX1 / RFU, TTC7A / Fold change vs veh, TTC7A / RFU, TMEM135 / Fold change vs veh, TMEM135 / RFU, DEPTOR / Fold change vs veh, DEPTOR / RFU, CPM / Fold change vs veh, CPM / RFU, DNAJB6 / Fold change vs veh, DNAJB6 / RFU, CACNA2D3 / Fold change vs veh, CACNA2D3 / RFU, DTX4 / Fold change vs veh, DTX4 / RFU, TFCP2 / Fold change vs veh, TFCP2 / RFU, GMCL1 /// GMCL1P1 / Fold change vs veh, GMCL1 /// GMCL1P1 / RFU, AEBP2 / Fold change vs veh, AEBP2 / RFU, SNHG1 /// SNORD22 /// SNORD25 /// SNORD26 /// SNORD27 /// SNORD28 /// SNORD29 /// SNORD31 / Fold change vs veh, SNHG1 /// SNORD22 /// SNORD25 /// SNORD26 /// SNORD27 /// SNORD28 /// SNORD29 /// SNORD31 / Fold change (Aza/veh), C12orf56 (ProbeSet 11735607_a_at) / Fold change (ACY-1035/veh), C12orf56 (ProbeSet 11735607_a_at) / Fold change (Aza/veh), FGFR1OP (ProbeSet 11751329_s_at) / Fold change (ACY-1035/veh), FGFR1OP (ProbeSet 11751329_s_at) / Fold change (Aza/veh), VPS36 (ProbeSet 11739960_a_at) / Fold change (ACY-1035/veh), VPS36 (ProbeSet 11739960_a_at) / RFU SYPL1 (11715823_x_at) / Fold change /veh SYPL1 (11715823_x_at) / RFU IGFBP7 (11715501_s_at) / Fold change /veh IGFBP7 (11715501_s_at) / RFU REEP3 (11722064_at) / Fold change /veh REEP3 (11722064_at) / RFU IGLL1 (11728026_x_at) / Fold change /veh IGLL1 (11728026_x_at): dose or concentration left out as unconfirmed
# Settings: MV-4-11 cells, 48 hours
structure (smiles),measurement,value
Nc1ccc(-c2cccs2)cc1NC(=O)c1ccc2c(c1)cc(C1CC1)n2CCN1CCOCC1 [ACY-1035],RFU RHOB (11743442_s_at),104.18 RFU
